Assay results published in US8569344B2, “N-piperidinyl acetamide derivatives as calcium channel blockers” (Zalicus Pharmaceuticals Ltd., priority 2008, dated 2013).

Legend:
[1] = biological target: T1, human α1H T-type channels (Homo sapiens, UniProt O95180); test: T-type calcium channel block, whole cell patch clamp in HEK cells (α1H); format: cell-based; details: HEK cells, patch clamp, mainly non-inactivated protocol; values above 10 μM shown as 10 μM; read-out: T-type Calcium Channel Block α1H IC50
T1 construct: expressed in transfected cells; host or cells: HEK 293
T1 sequence (O95180 whole entry): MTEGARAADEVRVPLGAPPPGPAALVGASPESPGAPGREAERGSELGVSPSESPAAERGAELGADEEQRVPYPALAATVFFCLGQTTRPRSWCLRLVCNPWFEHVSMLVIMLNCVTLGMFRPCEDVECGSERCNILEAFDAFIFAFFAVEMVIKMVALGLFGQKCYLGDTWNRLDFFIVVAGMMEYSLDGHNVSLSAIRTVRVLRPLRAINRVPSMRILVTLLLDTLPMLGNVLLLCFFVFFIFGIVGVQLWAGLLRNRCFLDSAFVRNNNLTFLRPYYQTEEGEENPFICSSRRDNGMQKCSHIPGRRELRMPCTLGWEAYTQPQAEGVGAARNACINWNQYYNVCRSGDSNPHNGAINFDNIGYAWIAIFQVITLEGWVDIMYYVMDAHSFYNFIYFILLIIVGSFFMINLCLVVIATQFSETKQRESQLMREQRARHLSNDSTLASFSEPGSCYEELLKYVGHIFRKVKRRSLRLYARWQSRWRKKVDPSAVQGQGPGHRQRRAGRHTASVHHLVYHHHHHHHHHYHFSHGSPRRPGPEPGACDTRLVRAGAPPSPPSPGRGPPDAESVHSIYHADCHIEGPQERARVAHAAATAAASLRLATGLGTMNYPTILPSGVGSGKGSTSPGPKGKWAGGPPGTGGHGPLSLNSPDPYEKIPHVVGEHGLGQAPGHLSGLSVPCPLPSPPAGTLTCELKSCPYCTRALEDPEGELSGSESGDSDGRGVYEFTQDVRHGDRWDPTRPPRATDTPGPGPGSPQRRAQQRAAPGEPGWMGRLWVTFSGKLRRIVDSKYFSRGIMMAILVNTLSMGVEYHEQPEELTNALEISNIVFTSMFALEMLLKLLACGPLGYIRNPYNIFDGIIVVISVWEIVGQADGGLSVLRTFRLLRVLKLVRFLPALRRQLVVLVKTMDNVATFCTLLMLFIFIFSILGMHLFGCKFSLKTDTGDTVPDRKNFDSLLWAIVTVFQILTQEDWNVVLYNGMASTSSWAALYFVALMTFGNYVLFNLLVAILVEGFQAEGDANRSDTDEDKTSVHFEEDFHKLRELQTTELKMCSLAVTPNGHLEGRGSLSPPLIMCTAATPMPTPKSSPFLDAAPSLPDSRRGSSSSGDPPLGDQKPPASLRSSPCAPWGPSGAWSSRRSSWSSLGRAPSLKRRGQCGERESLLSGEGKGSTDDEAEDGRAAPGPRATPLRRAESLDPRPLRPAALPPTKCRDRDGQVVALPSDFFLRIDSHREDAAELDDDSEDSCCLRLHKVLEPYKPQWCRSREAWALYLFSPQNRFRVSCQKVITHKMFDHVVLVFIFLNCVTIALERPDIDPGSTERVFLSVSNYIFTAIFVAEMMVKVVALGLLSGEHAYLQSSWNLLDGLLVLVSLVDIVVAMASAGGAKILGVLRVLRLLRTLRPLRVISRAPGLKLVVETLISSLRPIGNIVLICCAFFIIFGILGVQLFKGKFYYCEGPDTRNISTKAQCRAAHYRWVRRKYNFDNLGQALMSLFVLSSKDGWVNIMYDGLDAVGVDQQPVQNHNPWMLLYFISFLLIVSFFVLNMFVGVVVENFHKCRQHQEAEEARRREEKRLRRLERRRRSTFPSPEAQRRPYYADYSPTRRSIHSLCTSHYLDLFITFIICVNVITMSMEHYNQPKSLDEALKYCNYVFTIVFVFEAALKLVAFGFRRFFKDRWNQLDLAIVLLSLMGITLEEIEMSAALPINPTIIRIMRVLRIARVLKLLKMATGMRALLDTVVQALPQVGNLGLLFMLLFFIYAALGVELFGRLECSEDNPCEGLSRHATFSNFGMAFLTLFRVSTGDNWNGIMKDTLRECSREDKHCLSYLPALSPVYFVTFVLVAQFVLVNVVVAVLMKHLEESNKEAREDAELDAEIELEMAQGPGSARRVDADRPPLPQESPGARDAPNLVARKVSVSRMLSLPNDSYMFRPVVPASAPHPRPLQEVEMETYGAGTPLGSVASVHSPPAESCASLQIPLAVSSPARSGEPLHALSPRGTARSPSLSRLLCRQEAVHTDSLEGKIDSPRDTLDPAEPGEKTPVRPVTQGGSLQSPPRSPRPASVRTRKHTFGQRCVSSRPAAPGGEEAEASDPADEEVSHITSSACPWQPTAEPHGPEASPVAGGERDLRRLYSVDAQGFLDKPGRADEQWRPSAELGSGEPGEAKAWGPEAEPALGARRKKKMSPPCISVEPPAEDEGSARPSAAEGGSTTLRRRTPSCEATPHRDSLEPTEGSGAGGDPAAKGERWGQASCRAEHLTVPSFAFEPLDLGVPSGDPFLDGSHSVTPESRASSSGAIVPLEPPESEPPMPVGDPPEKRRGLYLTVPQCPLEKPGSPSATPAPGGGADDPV

[2] = biological target: T2, human α1G T-type channels (Homo sapiens, UniProt O43497); test: T-type calcium channel block, whole cell patch clamp in HEK cells (α1G); format: cell-based; details: HEK cells, patch clamp, mainly non-inactivated protocol; values above 10 μM shown as 10 μM, below 0.30 μM shown as 0.30 μM; read-out: T-type Calcium Channel Block α1G IC50
T2 construct: expressed in transfected cells; host or cells: HEK 293
T2 sequence (O43497 whole entry): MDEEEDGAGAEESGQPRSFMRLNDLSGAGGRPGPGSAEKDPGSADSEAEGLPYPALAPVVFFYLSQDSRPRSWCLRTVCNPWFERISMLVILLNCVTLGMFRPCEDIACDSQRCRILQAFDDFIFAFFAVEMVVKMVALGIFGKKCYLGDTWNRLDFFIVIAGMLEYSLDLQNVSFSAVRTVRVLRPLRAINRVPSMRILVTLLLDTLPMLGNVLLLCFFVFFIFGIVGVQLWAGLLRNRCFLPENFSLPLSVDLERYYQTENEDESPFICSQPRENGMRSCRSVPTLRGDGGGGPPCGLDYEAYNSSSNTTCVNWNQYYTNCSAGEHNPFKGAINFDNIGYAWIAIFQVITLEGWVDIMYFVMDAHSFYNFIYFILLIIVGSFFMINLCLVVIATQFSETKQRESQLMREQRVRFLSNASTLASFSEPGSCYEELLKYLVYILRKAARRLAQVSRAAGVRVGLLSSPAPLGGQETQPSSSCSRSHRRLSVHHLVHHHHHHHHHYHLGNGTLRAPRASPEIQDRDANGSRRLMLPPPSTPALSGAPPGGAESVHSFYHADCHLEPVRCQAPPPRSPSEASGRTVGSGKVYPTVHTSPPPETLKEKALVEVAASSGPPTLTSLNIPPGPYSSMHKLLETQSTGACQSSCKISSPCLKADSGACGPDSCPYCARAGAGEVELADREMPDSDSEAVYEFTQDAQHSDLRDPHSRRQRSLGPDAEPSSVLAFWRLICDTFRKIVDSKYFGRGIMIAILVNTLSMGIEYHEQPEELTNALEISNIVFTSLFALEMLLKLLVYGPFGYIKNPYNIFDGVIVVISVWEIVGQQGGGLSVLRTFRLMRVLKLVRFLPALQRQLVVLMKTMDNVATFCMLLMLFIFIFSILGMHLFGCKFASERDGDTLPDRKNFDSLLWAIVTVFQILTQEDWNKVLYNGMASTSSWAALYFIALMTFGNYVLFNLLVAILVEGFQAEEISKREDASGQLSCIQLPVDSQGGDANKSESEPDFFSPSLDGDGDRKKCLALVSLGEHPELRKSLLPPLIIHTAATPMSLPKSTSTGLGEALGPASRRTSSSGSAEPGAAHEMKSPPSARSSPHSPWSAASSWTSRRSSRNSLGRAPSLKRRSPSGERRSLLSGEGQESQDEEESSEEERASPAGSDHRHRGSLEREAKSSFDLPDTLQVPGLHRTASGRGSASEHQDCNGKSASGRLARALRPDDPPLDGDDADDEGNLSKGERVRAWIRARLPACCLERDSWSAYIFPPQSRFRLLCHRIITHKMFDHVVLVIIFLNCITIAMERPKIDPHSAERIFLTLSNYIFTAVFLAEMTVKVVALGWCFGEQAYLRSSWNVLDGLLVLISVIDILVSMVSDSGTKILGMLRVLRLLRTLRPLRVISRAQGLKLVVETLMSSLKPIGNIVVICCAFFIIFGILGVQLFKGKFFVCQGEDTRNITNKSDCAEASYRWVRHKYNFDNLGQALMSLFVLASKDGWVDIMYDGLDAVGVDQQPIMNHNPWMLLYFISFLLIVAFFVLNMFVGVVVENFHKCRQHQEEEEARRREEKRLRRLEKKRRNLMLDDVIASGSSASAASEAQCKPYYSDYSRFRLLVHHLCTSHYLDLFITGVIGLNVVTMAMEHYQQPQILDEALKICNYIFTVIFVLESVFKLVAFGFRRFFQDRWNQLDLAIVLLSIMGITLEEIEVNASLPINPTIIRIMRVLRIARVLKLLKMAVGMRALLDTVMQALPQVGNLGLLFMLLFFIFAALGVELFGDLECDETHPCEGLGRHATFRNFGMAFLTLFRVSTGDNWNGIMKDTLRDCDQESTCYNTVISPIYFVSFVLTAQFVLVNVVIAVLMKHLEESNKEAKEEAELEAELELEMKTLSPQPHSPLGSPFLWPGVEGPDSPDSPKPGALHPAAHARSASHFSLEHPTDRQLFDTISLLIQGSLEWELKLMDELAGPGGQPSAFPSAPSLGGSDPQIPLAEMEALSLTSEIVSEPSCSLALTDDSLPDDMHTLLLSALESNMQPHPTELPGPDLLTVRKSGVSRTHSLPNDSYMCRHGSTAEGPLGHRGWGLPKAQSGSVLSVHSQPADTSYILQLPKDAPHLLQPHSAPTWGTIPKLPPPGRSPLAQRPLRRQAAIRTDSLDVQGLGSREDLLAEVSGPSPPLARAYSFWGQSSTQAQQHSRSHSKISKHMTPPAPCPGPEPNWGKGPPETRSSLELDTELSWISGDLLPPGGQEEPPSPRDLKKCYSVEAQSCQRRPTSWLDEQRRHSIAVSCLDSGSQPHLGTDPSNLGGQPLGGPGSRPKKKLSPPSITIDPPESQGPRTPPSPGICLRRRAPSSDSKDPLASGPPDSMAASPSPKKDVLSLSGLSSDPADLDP

Row | Compound | IC50 [1] [nM] | IC50 [2] [nM]
1 | O=C(NCC1CCN(CCNS(=O)(=O)C2CC2)CC1)c1cccc(Br)c1 [Compound 323, 3-bromo-N-((1-(2-(cyclopropanesulfonamido)ethyl)piperidin-4-yl)methyl)benzamide] | 2660 | 1870
2 | O=C(CN1CCC(CNC(=O)c2cccc(F)c2)CC1)NC1CCCC1 [Compound 535, N-((1-(2-(cyclopentylamino)-2-oxoethyl)piperidin-4-yl)methyl)-3-fluorobenzamide] | 2140 | 3620
3 | O=C(NCC1CCN(C(=O)CNC2CCCCC2O)CC1)c1cc(F)cc(C(F)(F)F)c1 (stereo not shown) [Compound 275, 3-fluoro-N-((1-(2-(2-hydroxycyclohexylamino)acetyl)piperidin-4-yl)methyl)-5-(trifluoromethyl)benzamide] | > 10000 | 1990
4 | CC1CCCN(CC(=O)N2CCC(CNC(=O)c3cc(F)cc(C(F)(F)F)c3)CC2)C1 (stereo not shown) [Compound 268, 3-fluoro-N-((1-(2-(3-methylpiperidin-1-yl)acetyl)piperidin-4-yl)methyl)-5-(trifluoromethyl)benzamide] | > 10000 | > 10000
5 | O=C(NCC1CCN(C(=O)CN2CCCC(C(F)(F)F)C2)CC1)c1cc(F)cc(C(F)(F)F)c1 (stereo not shown) [Compound 282, 3-fluoro-5-(trifluoromethyl)-N-((1-(2-(3-(trifluoromethyl)piperidin-1-yl)acetyl)piperidin-4-yl)methyl)benzamide] | 7160 | 2500
6 | O=C(NCC1CCN(C(=O)CN2CCCC(F)(F)C2)CC1)c1cc(C(F)(F)F)cc(C(F)(F)F)c1 [Compound 256, N-((1-(2-(3,3-difluoropiperidin-1-yl)acetyl)piperidin-4-yl)methyl)-3,5-bis(trifluoromethyl)benzamide] | > 10000 | 5570
7 | CCCNC(=O)CN1CCC(CNC(=O)c2cc(OC)cc(OC)c2)CC1 [Compound 448, 3,5-dimethoxy-N-((1-(2-oxo-2-(propylamino)ethyl)piperidin-4-yl)methyl)benzamide] | 4640 | 9730
8 | CC(C)(C)NS(=O)(=O)CCN1CCC(CNC(=O)c2cc(F)cc(C(F)(F)F)c2)CC1 [Compound 514, N-((1-(2-(N-tert-butylsulfamoyl)ethyl)piperidin-4-yl)methyl)-3-fluoro-5-(trifluoromethyl)benzamide] | 310 | < 300
9 | CC(C)(C)C(=O)NCCN1CCC(CNC(=O)c2cc(Br)cc(C(F)(F)F)c2)CC1 [Compound 302, 3-bromo-N-((1-(2-pivalamidoethyl)piperidin-4-yl)methyl)-5-(trifluoromethyl)benzamide] | 300 | < 300
10 | CC(C)NC(=O)CN1CCC(CNC(=O)c2cc(F)cc(C(F)(F)F)c2)CC1 [Compound 350, 3-fluoro-N-((1-(2-(isopropylamino)-2-oxoethyl)piperidin-4-yl)methyl)-5-(trifluoromethyl)benzamide] | 750 | 910
11 | O=C(NC1CCCCC1)NC1(CN2CCC(CNC(=O)c3cc(C(F)(F)F)cc(C(F)(F)F)c3)CC2)CCCC1 [Compound 14, N-((1-((1-(3-cyclohexylureido)cyclopentyl)methyl)piperidin-4-yl)methyl)-3,5-bis(trifluoromethyl)benzamide] | 1170 | < 300
12 | CC(C)(C)C(CN1CCC(CC(=O)NC(c2cccc(F)c2)c2cccc(F)c2)CC1)NS(=O)(=O)C1CC1 (stereo not shown) [Compound 221, N-(bis(3-fluorophenyl)methyl)-2-(1-(2-(cyclopropanesulfonamido)-3,3-dimethylbutyl)piperidin-4-yl)acetamide] | > 10000 | 4080
13 | CC(C)(C)C(=O)NCCN1CCC(CNC(=O)c2cc(F)cc(Cl)c2)CC1 [Compound 309, 3-chloro-5-fluoro-N-((1-(2-pivalamidoethyl)piperidin-4-yl)methyl)benzamide] | 350 | 850
14 | CC(C)COC(=O)NC(CN1CCC(CC(=O)NCc2cc(Cl)cc(Cl)c2)CC1)C(C)(C)C (stereo not shown) [Compound 225, isobutyl 1-(4-(2-(3,5-dichlorobenzyl-amino)-2-oxoethyl)piperidin-1-yl)-3,3-dimethylbutan-2-ylcarbamate] | 770 | 520
15 | CC(C(=O)N1CCC[C@@H]1C(F)(F)F)N1CCC(CNC(=O)c2cc(F)cc(Cl)c2)CC1 (stereo partly drawn) [Compound 558, 3-chloro-5-fluoro-N-((1-(1-oxo-1-((R)-2-(trifluoromethyl)pyrrolidin-1-yl)propan-2-yl)piperidin-4-yl)methyl) benzamide] | 460 | < 300
16 | CC(C)(C)OC(=O)NCCN1CCC(CNC(=O)c2cc(Br)cc(C(F)(F)F)c2)CC1 [Compound 41, tert-butyl 2-(4-((3-bromo-5-(trifluoromethyl)benzamido)methyl)piperidin-1-yl)ethylcarbamate] | 150 | < 300

Row | Compound | IC50 [1] [nM] | IC50 [2] [nM]
17 | O=C(NCC1CCN(CC(=O)N2CCC[C@H]2C(F)(F)F)CC1)c1cccc(C(F)(F)F)c1 [Compound 467, (S)-N-((1-(2-oxo-2-(2-(trifluoromethyl)pyrrolidin-1-yl)ethyl)piperidin-4-yl)methyl)-3-(trifluoromethyl)benzamide] | 170 | < 300
18 | Cc1ccc(-c2csc(NC(=O)CC3CCN(CC(O)C(C)(C)C)CC3)n2)cc1 (stereo not shown) [Compound 172, 2-(1-(2-hydroxy-3,3-dimethylbutyl)piperidin-4-yl)-N-(4-p-tolylthiazol-2-yl)acetamide] | > 10000 | 1620
19 | CC(C)(C)NCC(=O)N1CCC(CNC(=O)c2cc(C(F)(F)F)cc(C(F)(F)F)c2)CC1 [Compound 239, N-((1-(2-(tert-butylamino)acetyl)piperidin-4-yl)methyl)-3,5-bis(trifluoromethyl)benzamide] | 1730 | < 300
20 | CCONC(=O)CN1CCC(CNC(=O)c2cc(C(F)(F)F)cc(C(F)(F)F)c2)CC1 [Compound 486, N-((1-(2-(ethoxyamino)-2-oxoethyl)piperidin-4-yl)methyl)-3,5-bis(trifluoromethyl)benzamide] | > 10000 | > 10000
21 | CN(CCN1CCC(CNC(=O)c2cc(F)cc(C(F)(F)F)c2)CC1)C(=O)C1(C(F)(F)F)CC1 [Compound 520, 3-fluoro-N-((1-(2-(N-methyl-1-(trifluoromethyl)cyclopropanecarbox-amido)ethyl)piperidin-4-yl)methyl)-5-(trifluoromethyl)benzamide] | 190 | < 300
22 | Cc1cc(C)cc(C(=O)NCC2CCN(CCNC(=O)CCC(F)(F)F)CC2)c1 [Compound 312, 3,5-dimethyl-N-((1-(2-(4,4,4-trifluorobutanamido)ethyl)piperidin-4-yl)methyl)benzamide] | 750 | 4260
23 | CCOC(=O)NC1(CN2CCC(CNC(=O)c3cc(C(F)(F)F)cc(C(F)(F)F)c3)CC2)CCCC1 [Compound 17, ethyl 1-((4-((3,5-bis(trifluoromethyl)benzamido)methyl)piperidin-1-yl)methyl)cyclopentylcarbamate] | 120 | < 300
24 | CN(CCN1CCC(CNC(=O)c2cc(F)cc(C(F)(F)F)c2)CC1)C(=O)C1(C(F)(F)F)CCCC1 [Compound 522, 3-fluoro-N-((1-(2-(N-methyl-1-(trifluoromethyl)cyclopentanecarbox-amido)ethyl)piperidin-4-yl)methyl)-5-(trifluoromethyl)benzamide] | 140 | < 300
25 | Cc1cc(C)cc(C(=O)NCC2CCN(CCNC(=O)C3(C(F)(F)F)CC3)CC2)c1 [Compound 497, 3,5-dimethyl-N-((1-(2-(1-(trifluoromethyl)cyclopropanecarbox-amido)ethyl)piperidin-4-yl)methyl) benzamide] | 160 | 770
26 | CCC(C)(C)NC(=O)CN1CCC(CNC(=O)c2cc(F)cc(C(F)(F)F)c2)CC1 [Compound 353, 3-fluoro-N-((1-(2-oxo-2-(tert-pentylamino)ethyl)piperidin-4-yl)methyl)-5-(trifluoromethyl)benzamide] | 60 | < 300
27 | CC(C)(C)OC(=O)NCCN1CCC(CNC(=O)c2cc(F)cc(F)c2)CC1 [Compound 47, tert-butyl 2-(4-((3,5-difluorobenzamido)methyl)piperidin-1-yl)ethylcarbamate] | 880 | 3110
28 | CC(C)(F)CNC(=O)CN1CCC(CNC(=O)c2cccc(Cl)c2)CC1 [Compound 554, 3-chloro-N-((1-(2-(2-fluoro-2-methylpropylamino)-2-oxoethyl)piperidin-4-yl)methyl)benzamide] | > 10000 | > 10000
29 | Cc1cc(C)cc(C(=O)NCC2CCN(CC(=O)NC(C)(C)C(F)(F)F)CC2)c1 [Compound 454, 3,5-dimethyl-N-((1-(2-oxo-2-(1,1,1-trifluoro-2-methylpropan-2-ylamino)ethyl)piperidin-4-yl)methyl)benzamide] | 40 | < 300
30 | Cc1cc(C)cc(C(=O)NCC2CCN(CCNC(=O)OC(C)(C)C)CC2)c1 [Compound 42, tert-butyl 2-(4-((3,5-dimethylbenzamido)methyl)piperidin-1-yl)ethylcarbamate] | 760 | 1640
31 | CN(CCN1CCC(CNC(=O)c2cc(F)cc(C(F)(F)F)c2)CC1)C(=O)C(C)(C)C [Compound 515, 3-fluoro-N-((1-(2-(N-methylpivalamido)ethyl)piperidin-4-yl)methyl)-5-(trifluoromethyl)benzamide] | 310 | 310
32 | CCC1CCCN1CC(=O)N1CCC(CNC(=O)c2cc(F)cc(C(F)(F)F)c2)CC1 (stereo not shown) [Compound 280, N-((1-(2-(2-ethylpyrrolidin-1-yl)acetyl)piperidin-4-yl)methyl)-3-fluoro-5-(trifluoromethyl)benzamide] | 5590 | 9700
